Data: ChEMBL document CHEMBL1201862, “PubChem BioAssay data set” (2004)
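Values below derive from 48-hour exposures of cells grown in 96-well plates, with endpoints linearly interpolated between the two concentrations bracketing the appropriate inhibition level. The concentration for 50% growth inhibition is given as GI50.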 Activity calls are given as the source filed them. No stated cut-off is given here; in the data, active = GI50 up to about 1.1 µM and inactive = higher.

Key:
Experiment in all cases: inhibition of tumour cell growth, NCI panel, 48 h
[1] = test system: HL-60
[2] = test system: UACC-257
[3] = test system: DU-145
[4] = test system: SK-MEL-28
[5] = test system: Malme-3M
[6] = test system: OVCAR-8
[7] = test system: UO-31
[8] = test system: NCI-H460
[9] = test system: PC-3
[10] = test system: U-251
[11] = test system: A549
[12] = test system: LOX IMVI
[13] = test system: HCT-15
[14] = test system: A498
[15] = test system: BT-549
[16] = test system: SF-539
[17] = test system: NCI-H226
[18] = test system: OVCAR-5
[19] = test system: HT-29
[20] = test system: Hs-578T

Compound	GI50 [1]	GI50 [2]	GI50 [3]	GI50 [4]	GI50 [5]	GI50 [6]	GI50 [7]	GI50 [8]	GI50 [9]	GI50 [10]	GI50 [11]	GI50 [12]	GI50 [13]	GI50 [14]	GI50 [15]	GI50 [16]	GI50 [17]	GI50 [18]	GI50 [19]	GI50 [20]
c1ccc(C(/C(=N/c2ccc(Cc3ccc(/N=C(\C(c4ccccc4)c4ccccc4)N4CC4)cc3)cc2)N2CC2)c2ccccc2)cc1	4.23 µM (inactive)	11.6 µM (inactive)	12.6 µM (inactive)	9.46 µM (inactive)	14.9 µM (inactive)	10.7 µM (inactive)	2.6 µM (inactive)	1.78 µM (inactive)	3.83 µM (inactive)	12.7 µM (inactive)	7.36 µM (inactive)	1.53 µM (inactive)	10.1 µM	12.5 µM (inactive)	10.5 µM (inactive)	16.3 µM (inactive)	14.7 µM (inactive)	11.5 µM (inactive)	3.1 µM (inactive)	10.6 µM (inactive)
CC(C)NC(=O)OCc1c(COC(=O)NC(C)C)c(-c2cc[n+](COC(=O)C(C)C)cc2)n2c1CCC2	27.8 µM (inactive)	> 100 µM (inactive)	> 100 µM (inactive)	> 100 µM (inactive)	> 100 µM (inactive)	> 100 µM (inactive)	> 100 µM (inactive)	41.6 µM (inactive)	> 59.6 µM (inactive)	> 100 µM (inactive)	> 100 µM (inactive)	> 50.7 µM (inactive)	> 100 µM	13.9 µM (inactive)	> 100 µM (inactive)	17.7 µM (inactive)	> 100 µM (inactive)	> 100 µM (inactive)	> 100 µM (inactive)	> 100 µM (inactive)
Cc1cccc(-c2cc(O)c3c(C)cc(C)nc3n2)c1	0.838 µM (active)	7.87 µM (inactive)	4.32 µM (inactive)	13.1 µM (inactive)	2.31 µM (inactive)	5.58 µM (inactive)	9.91 µM (inactive)	2.95 µM (inactive)	2.43 µM (inactive)	2.79 µM (inactive)	3.66 µM (inactive)	4.82 µM (inactive)	1.32 µM	5.71 µM (inactive)	3.73 µM (inactive)	2.75 µM (inactive)	3.59 µM (inactive)	5.15 µM (inactive)	2.12 µM (inactive)	2.52 µM (inactive)
CCCCCC(O)C(O)CCC[C@H](O)[C@H]1CC[C@H]([C@H]2CC[C@H]([C@H](O)CCCCCCCCCCCCC3=C[C@H](C)OC3=O)O2)O1 (stereo not given in full)	1.57 µM (inactive)	0.597 µM (active)	9.18 µM (inactive)	2.56 µM (inactive)	11.9 µM (inactive)	2.99 µM (inactive)	1.85 µM (inactive)	2.43 µM (inactive)	2.94 µM (inactive)	3.73 µM (inactive)	2.21 µM (inactive)	1.21 µM (inactive)	3.81 µM	2.65 µM (inactive)	8.93 µM (inactive)	5.7 µM (inactive)	2.49 µM (inactive)	15.7 µM (inactive)	2.63 µM (inactive)	2.91 µM (inactive)
O=[N+]([O-])c1ccc2nc3c(nc2c1)-c1c2ccccc2cc2cccc-3c12	20.5 µM (inactive)	18.8 µM (inactive)	28.2 µM (inactive)	51.4 µM (inactive)	19 µM (inactive)	7.55 µM (inactive)	12.1 µM (inactive)	19.7 µM (inactive)	9.55 µM (inactive)	5.9 µM (inactive)	48.6 µM (inactive)	4.8 µM (inactive)	6.28 µM	0.427 µM (active)	3.56 µM (inactive)	15 µM (inactive)	12.7 µM (inactive)	51.8 µM (inactive)	5.31 µM (inactive)	5.37 µM (inactive)
O=C(NCCNCCCNC(=O)c1cc(-c2ccccc2)nc2ccccc12)c1cccc(O)c1O	3.21 µM (inactive)	4.01 µM (inactive)	3.61 µM (inactive)	1.72 µM (inactive)	3.82 µM (inactive)	2.38 µM (inactive)	3.3 µM (inactive)	2.36 µM (inactive)	5.94 µM (inactive)	2.87 µM (inactive)	4.72 µM (inactive)	3.33 µM (inactive)	5.36 µM	15.8 µM (inactive)	2.56 µM (inactive)	2.48 µM (inactive)	18.5 µM (inactive)	2.28 µM (inactive)	4.88 µM (inactive)	13.8 µM (inactive)
Cc1sc2nc3n(c(=O)c2c1C)N=C(c1ccc(Cl)cc1)CS3	> 100 µM (inactive)	> 100 µM (inactive)	> 100 µM (inactive)	> 100 µM (inactive)	> 100 µM (inactive)	> 100 µM (inactive)	> 100 µM (inactive)	> 100 µM (inactive)	> 100 µM (inactive)	> 100 µM (inactive)	> 100 µM (inactive)	> 100 µM (inactive)	> 100 µM	> 100 µM (inactive)	31.6 µM (inactive)	> 100 µM (inactive)	> 100 µM (inactive)	> 100 µM (inactive)	> 100 µM (inactive)	82.6 µM (inactive)
Cc1ccc(S(=O)(=O)Nc2ccccc2C=O)cc1	11 µM (inactive)	18 µM (inactive)	26.1 µM (inactive)	21.3 µM (inactive)	14.7 µM (inactive)	14.7 µM (inactive)	10.7 µM (inactive)	19.8 µM (inactive)	11.4 µM (inactive)	13.1 µM (inactive)	27.1 µM (inactive)	13.8 µM (inactive)	7.4 µM	30 µM (inactive)	18.6 µM (inactive)	0.569 µM (active)	14.6 µM (inactive)	25.1 µM (inactive)	22.8 µM (inactive)	15.8 µM (inactive)
CC(C)C1CC(CO)(CNc2nc(N)nc(Cl)c2C=O)C1 (stereo not given)	1.57 µM (inactive)	2.49 µM (inactive)	14.6 µM (inactive)	1.88 µM (inactive)	11.1 µM (inactive)	2.75 µM (inactive)	6.27 µM (inactive)	8.22 µM (inactive)	2.1 µM (inactive)	3.35 µM (inactive)	12.9 µM (inactive)	2.04 µM (inactive)	4.43 µM	15.1 µM (inactive)	11.4 µM (inactive)	13.7 µM (inactive)	8.95 µM (inactive)	17.1 µM (inactive)	2.48 µM (inactive)	4.38 µM (inactive)
CC(=O)O[C@H]1CC[C@@]2(C)C(=CC[C@@H]3[C@@H]2CC[C@]2(C)C(=N/O)/C(=C\c4ccccc4)C[C@@H]32)C1	14.5 µM (inactive)	6.52 µM (inactive)	23.4 µM (inactive)	12.7 µM (inactive)	4.14 µM (inactive)	9.71 µM (inactive)	9.06 µM (inactive)	17.5 µM (inactive)	5.96 µM (inactive)	24.9 µM (inactive)	14.4 µM (inactive)	9.14 µM (inactive)	16.5 µM	13.4 µM (inactive)	16.5 µM (inactive)	15.9 µM (inactive)	12.5 µM (inactive)	17.1 µM (inactive)	3.99 µM (inactive)	22.5 µM (inactive)
